Values of other authors in US8091275B2, “pH buffered plant nutrient compositions and methods for growing plants” (AeroGrow International, priority 2004, dated 2012).

Tested on: plants
Settings: phosphorous maintained at levels adequate to stabilize pH (1 to 10 mM)

For phosphorous, the toxicity to plants is listed as “toxic to plants”.
